Reference: patent US20160375073A1, “COMPOSITION FOR TREATMENT OR PREVENTION OF OBESITY, CONTAINING WATER EXTRACTS OF FOMITELLA FRAXINEA” (POSTECH ACADEMY-INDUSTRY FOUNDATION, priority 2011, published 2016)

System: lipid absorption in the digestive tract
Test: Amount of lipid absorption from the digestive tract into blood (14C-triolein, plasma radioactivity)
Format: in vivo, mouse
Details: male Balb/c mice, oral 14C-triolein, plasma 6 hours after administration, relative to untreated control = 1; FIG. 3
Experimental: Triolein (Amersham, 100 μCi/mL) radiolabeled with ^14C was mixed with 1% (w/v) sodium carboxylmethyl cellulose (CMC-Na) and 1% (v/v) Tween 80, and then 0.1 mL of the mixture was forcibly administered into each mouse through an oral zonde so that 1 μCi could be delivered to each mouse. Here, the mouse in the control group (an 8-week old male Balb/c with body weight of 25 g) was treated with 400 μg of Orlistat (20 mg/kg), which is used as an obesity treatment, and the mouse in the experimental group (an 8-week old male Balb/c with body weight of 25 g) was treated with 0.5 mL of the water extract (50 mg/mL) of Fomitella […] prepared in the Example after concentrating it into 0.1 mL. Six hours after the administration, blood samples were collected from the mice, and plasma was obtained by centrifuging the blood at […] at the rate of 14000 rpm, and the radioactive dose was measured by a liquid scintillator (Beta counter, Beckman LS1801). The control group was not treated with anything. The amount of lipid absorption was determined as a relative value by dividing the radioactive dose of each group into the radioactive dose of the control group, in which the radioactive dose of the control group was set at '1'. […] In particular, the result on the control group in FIG. 3 was obtained from the blood sample of a mouse not treated with any lipid absorption inhibitor.

## CCCCCCCCCCC[C@@H](C[C@@H]1OC(=O)[C@H]1CCCCCC)OC(=O)[C@H](CC(C)C)NC=O [Orlistat, orlistat]
  inhibitory effect upon lipid absorption: significant inhibitory effect upon lipid absorption
